The subject of data set [1] is T47D ductal carcinoma line (PRLR+). As to the kind of experiment: In vitro cytotoxicity assay (CellTiter-Glo), T47D cells. In kind it is cell-based, human. Conditions: for IC50: 5 days. As to the method: The present example provides cytotoxicity assays for conjugates provided herein. To evaluate the ability of anti-PRLR antibodies conjugated with 63, 60, 77, and 78 to kill a PRLR expressing cell line, an in vitro cytotoxicity assay using a T47D ductal carcinoma line (ATCC, #HTB-133), which was previously determined to express >27,000 copies of human PRLR at its cell surface, was utilized.
For the assay, T47D cells were seeded onto white 96 well plates at 2,000 cells/well in media containing DMEM supplemented with 10% FBS, NEAA, and pencillin/streptomycinin (complete media). They were grown overnight at 37° C. in 5% CO2. To determine cell viability curves, the following day antibody drug conjugates, unconjugated antibodies, or free payloads were added to the cells at final serial dilutions ranging from 100 nM to 0.01 nM in complete medium and then incubated for an additional 5 days. Luciferase activity was detected after the addition of CellTiter-Glo™ reagent (Promega, G7571) to each well, which contains reagents to lyse the remaining viable cells to release their ATP, ATPase inhibitors to prevent degradation of the ATP, as well as luciferin and luciferase to catalyse the luminescent reaction. Viable cells prior to addition of CellTiter-Glo will be the only source of ATP since the dead cells in culture will not synthesis ATP and any of their released ATP will be destroyed via endogenous ATPases. Relative light units (RLUs) were measured on a Victor luminometer (PerkinElmer) and the results were determined using a four-parameter logistic equation over a 10-point response curve (GraphPad Prism). All measured values and calculated IC50 values were corrected for payload equivalents. All IC50 values are expressed in nM concentration and percent kill is reported for the highest concentration tested.

The test system of data set [2] is C4-2 (PSMA+) cells. Kind of data set: In vitro cytotoxicity assay (CCK8 viability), C4-2 cells. In kind it is cell-based. Conditions: Table 5, payloads only; for IC50: read-out: C4-2 IC50. The procedure: In this Example, the ability of various antibody-drug conjugates or their associated payloads to kill antigen-expressing tumor cells in vitro was assessed.
Ovcar3 (Muc16+) or C4-2 (PSMA+) cells were seeded in 96 well plates at 3000 (C42) cells per well in complete growth media and grown overnight. For cell viability curves, serially diluted conjugates or payloads were added to the cells at final concentrations ranging from 300 nM to 5 pM and incubated for 3 days. To measure viability, cells were incubated with CCK8 (Dojindo) for the final 1-3 hours and the absorbance at 450 nm (OD450) was determined on a Victor (Perkin Elmer). Background OD450 levels determined from digitonin ([…]) treated cells were subtracted from all wells and viability is expressed as a percentage of the untreated controls. IC50 values were determined from a four-parameter logistic equation over a 10-point response curve (GraphPad Prism). All conjugate curves and IC50 values are corrected for payload equivalents.

Where [3] appears, read: Table 5, payloads only, read-out: T47D IC50.
[4] abbreviates: Table 5, payloads only, highest concentration tested.

The structures appear in SMILES notation. Read-outs that look alike come from different tables or passages of the source.

For the molecule `COc1cc2cc(c1Cl)N(C)C(=O)C[C@H](OC(=O)[C@H](C)N(C)C(=O)c1cc(F)c(N)cc1F)[C@]1(C)O[C@H]1[C@H](C)[C@@H]1C[C@@](O)(NC(=O)O1)[C@H](OC)/C=C/C=C(\C)C2` [Compound 39, Maytansin-N-methyl-L-alanine-N-(2,5-difluoro-4-amino)benzamide], in data set [1] (setting [3]), the IC50 (usually the midpoint of a concentration-inhibition curve) came out at 0.02 nM. In addition, in data set [1] (setting [4]), the T47D % kill is on record as 70%.

Take `COc1cc2cc(c1Cl)N(C)C(=O)C[C@H](OC(=O)[C@H](C)N(C)C(=O)c1ccc(N)c(F)c1)[C@]1(C)O[C@H]1[C@H](C)[C@@H]1C[C@@](O)(NC(=O)O1)[C@H](OC)/C=C/C=C(\C)C2` [Compound 41, Maytansin-N-methyl-L-alanine-(3-fluoro-4-amino)benzamide]: the IC50 in data set [1] (setting [3]) was found to be 0.03 nM. Also, in data set [1] (setting [4]), the T47D % kill came out at 72%.

In the case of `COc1cc2cc(c1Cl)N(C)C(=O)C[C@H](OC(=O)[C@H](C)N(C)C(=O)c1ccc(N)c(Cl)c1)[C@]1(C)O[C@H]1[C@H](C)[C@@H]1C[C@@](O)(NC(=O)O1)[C@H](OC)/C=C/C=C(\C)C2` [Compound 43, Maytansin-N-methyl-L-alanine-(3-chloro-4-amino)benzamide], the IC50 in data set [1] (setting [3]) amounted to 0.01 nM. In data set [1] (setting [4]), this molecule yielded a T47D % kill of 71%.

With `COc1cc2cc(c1Cl)N(C)C(=O)CC(OC(=O)C(C)N(C)C(=O)c1ccc(N)c3cccnc13)C1(C)OC1C(C)C1CC(O)(NC(=O)O1)C(OC)C=CC=C(C)C2` [Compound 45, Maytansin-N-methyl-L-alanine-(5-amino-8-carboxyquinoline)carboxamide], the IC50 in data set [1] (setting [3]) was determined as 3.73 nM. Also, the T47D % kill in data set [1] (setting [4]) is listed as 72%.

Take `COc1cc2cc(c1Cl)N(C)C(=O)C[C@H](OC(=O)[C@H](C)N(C)C(=O)c1ccc(N)c(Br)c1)[C@]1(C)O[C@H]1[C@H](C)[C@@H]1C[C@@](O)(NC(=O)O1)[C@H](OC)/C=C/C=C(\C)C2` [Compound 47, Maytansin-N-methyl-L-alanine-(3-bromo-4-amino)benzamide]: the IC50 in data set [1] (setting [3]) was 0.01 nM. Moreover, the T47D % kill in data set [1] (setting [4]) came out at 72%.

With `COc1cc(C(=O)N(C)[C@@H](C)C(=O)O[C@H]2CC(=O)N(C)c3cc(cc(OC)c3Cl)C/C(C)=C/C=C/[C@@H](OC)[C@@]3(O)C[C@H](OC(=O)N3)[C@@H](C)[C@@H]3O[C@@]23C)ccc1N` [Compound 49, Maytansin-N-methyl-L-alanine-(3-methoxy-4-amino)benzamide], the IC50 was 0.03 nM in data set [1] (corrected for payload equivalents, read-out: IC50 (cytotoxicity of T47D cells)) and 0.06 nM in data set [1] (setting [3]). The maximum percent killing in data set [1] (T47D cells, highest concentration tested) was determined as 69%. Further, the T47D % kill in data set [1] (setting [4]) worked out at 70%.

Take `COc1cc2cc(c1Cl)N(C)C(=O)C[C@H](OC(=O)[C@H](C)N(C)C(=O)c1ccc(N)cc1C)[C@]1(C)O[C@H]1[C@H](C)[C@@H]1C[C@@](O)(NC(=O)O1)[C@H](OC)/C=C/C=C(\C)C2` [Compound 51, Maytansin-N-methyl-L-alanine-(2-methyl-4-amino)benzamide]: in data set [1] (setting [3]), the IC50 turned out to be 0.49 nM. This molecule returned a T47D % kill in data set [1] (setting [4]) of 72%.

On to `COc1cc2cc(c1Cl)N(C)C(=O)CC(OC(=O)C(C)N(C)C(=O)c1ccc(N)c(C)c1)C1(C)OC1C(C)C1CC(O)(NC(=O)O1)C(OC)C=CC=C(C)C2` [Compound 53, Maytansin-N-methyl-L-alanine-(3-methyl-4-amino)benzamide], for which the IC50 in data set [1] (setting [3]) came to 0.2 nM. Moreover, the T47D % kill in data set [1] (setting [4]) stood at 72%.

As for `COc1cc2cc(c1Cl)N(C)C(=O)C[C@H](OC(=O)[C@H](C)N(C)C(=O)c1ccc(N)c3ncccc13)[C@]1(C)O[C@H]1[C@H](C)[C@@H]1C[C@@](O)(NC(=O)O1)[C@H](OC)/C=C/C=C(\C)C2` [Compound 55, Maytansin-N-methyl-L-alanine-(8-amino-5-carboxyquinoline)carboxamide], in data set [1] (setting [3]), the IC50 was determined as 0.18 nM. In data set [1] (setting [4]), the T47D % kill is reported as 75%.

For `COc1ccc(N)cc1C(=O)N(C)[C@@H](C)C(=O)O[C@H]1CC(=O)N(C)c2cc(cc(OC)c2Cl)C/C(C)=C/C=C/[C@@H](OC)[C@@]2(O)C[C@H](OC(=O)N2)[C@@H](C)[C@@H]2O[C@@]12C` [Compound 65, Maytansin-N-methyl-L-alanine-N-(2-methoxy-5-amino)benzamide], the IC50 in data set [1] (setting [3]) was 1.13 nM. The molecule further came in with a T47D % kill in data set [1] (setting [4]) of 72%.

`COc1ccc(C(=O)N(C)[C@@H](C)C(=O)O[C@H]2CC(=O)N(C)c3cc(cc(OC)c3Cl)C/C(C)=C/C=C/[C@@H](OC)[C@@]3(O)C[C@H](OC(=O)N3)[C@@H](C)[C@@H]3O[C@@]23C)cc1N` [Compound 67, Maytansin-N-methyl-L-alanine-N-(3-amino-4-methoxy)benzamide]: the IC50 in data set [1] (setting [3]) came out at 0.19 nM. In addition, the T47D % kill in data set [1] (setting [4]) is listed as 71%.

As for `COc1cc2cc(c1Cl)N(C)C(=O)C[C@H](OC(=O)[C@H](C)N(C)C(=O)c1cc(N)cc(F)c1)[C@]1(C)O[C@H]1[C@H](C)[C@@H]1C[C@@](O)(NC(=O)O1)[C@H](OC)/C=C/C=C(\C)C2` [Compound 69, Maytansin-N-methyl-L-alanine-N-(3-amino-5-fluoro)benzamide], the IC50 in data set [1] (setting [3]) was 0.39 nM. The molecule also returned a T47D % kill in data set [1] (setting [4]) of 73%.

Consider `COc1cc2cc(c1Cl)N(C)C(=O)CC(OC(=O)C(C)N(C)C(=O)c1cc(N)ccc1F)C1(C)OC1C(C)C1CC(O)(NC(=O)O1)C(OC)C=CC=C(C)C2` [Compound 71, Maytansin-N-methyl-L-alanine-N-(2-fluoro-5-amino)benzamide], for which the IC50 in data set [1] (setting [3]) was 0.73 nM. In data set [1] (setting [4]), this molecule returned a T47D % kill of 68%.

For `COc1cc2cc(c1Cl)N(C)C(=O)C[C@H](OC(=O)[C@H](C)N(C)C(=O)c1cccc(N)c1)[C@]1(C)O[C@H]1[C@H](C)[C@@H]1C[C@@](O)(NC(=O)O1)[C@H](OC)/C=C/C=C(\C)C2` [Compound 73, Maytansin-N-methyl-L-alanine-N-(3-amino)benzamide], the IC50 in data set [1] (setting [3]) is 0.57 nM. Also, in data set [1] (setting [4]), the T47D % kill turned out to be 73%.

In the case of `COc1cc2cc(c1Cl)N(C)C(=O)C[C@H](OC(=O)[C@H](C)N(C)C(=O)c1ccc(N)c(S(C)(=O)=O)c1)[C@]1(C)O[C@H]1[C@H](C)[C@@H]1C[C@@](O)(NC(=O)O1)[C@H](OC)/C=C/C=C(\C)C2` [Compound 80, Maytansin-N-methyl-L-alanine-N-(3-methylsulfonyl-4-amino)benzamide], in data set [2], the C4-2 % kill amounted to 91% and the IC50 was found to be 1.3 nM.

Take `COc1cc2cc(c1Cl)N(C)C(=O)CC(OC(=O)C(C)N(C)C(=O)c1ccc(N)c(O)c1)C1(C)OC1C(C)C1CC(O)(NC(=O)O1)C(OC)C=CC=C(C)C2` [Compound 82, Maytansin-N-methyl-L-alanine-N-(3-hydroxy-4-amino)benzamide]: in data set [2], the C4-2 % kill is given as 93% and the IC50 was 19.9 nM.

As for `COc1cc2cc(c1Cl)N(C)C(=O)C[C@H](OC(=O)[C@H](C)N(C)C(=O)c1ccccc1N)[C@]1(C)O[C@H]1[C@H](C)[C@@H]1C[C@@](O)(NC(=O)O1)[C@H](OC)/C=C/C=C(\C)C2` [Compound 84, Maytansin-N-methyl-L-alanine-N-(2-amino)benzamide], in data set [2], the C4-2 % kill is on record as 88% and the IC50 turned out to be 0.07 nM.

On to `COc1ccc(C(=O)N(C)[C@@H](C)C(=O)O[C@H]2CC(=O)N(C)c3cc(cc(OC)c3Cl)C/C(C)=C/C=C/[C@@H](OC)[C@@]3(O)C[C@H](OC(=O)N3)[C@@H](C)[C@@H]3O[C@@]23C)c(N)c1` [Compound 86, Maytansin-N-methyl-L-alanine-N-(4-methoxy-2-amino)benzamide], for which, in data set [2], the C4-2 % kill came out at 90% and the IC50 was determined as 0.73 nM.

On to `COc1cc2cc(c1Cl)N(C)C(=O)C[C@H](OC(=O)[C@H](C)N(C)C(=O)c1ccc(N)c(N3CCOCC3)c1)[C@]1(C)O[C@H]1[C@H](C)[C@@H]1C[C@@](O)(NC(=O)O1)[C@H](OC)/C=C/C=C(\C)C2` [Compound 88, Maytansin-N-methyl-L-alanine-N-(3-morpholino-4-amino)benzamide], for which, in data set [2], the C4-2 % kill is recorded as 89% and the IC50 was determined as 0.05 nM.

For the molecule `COc1cc2cc(c1Cl)N(C)C(=O)C[C@H](OC(=O)[C@H](C)N(C)C(=O)c1ccc(N)c(NC(C)=O)c1)[C@]1(C)O[C@H]1[C@H](C)[C@@H]1C[C@@](O)(NC(=O)O1)[C@H](OC)/C=C/C=C(\C)C2` [Compound 90, Maytansin-N-methyl-L-alanine-N-(3-acetamido-4-amino)benzamide], in data set [2], the C4-2 % kill was found to be 86% and the IC50 was more than 100 nM.

The record behind these values is US12297207B2, “Maytansinoid derivatives, conjugates thereof, and methods of use” (priority 2015, dated 2025).
